pIC50: −log10 of the molar value.
system: IL-1β production in PMA-differentiated THP-1 cells; assay: IL-1β production in PMA-differentiated THP-1 cells stimulated with gramicidin (hTHP-1 assay, 2% fetal bovine serum; Procedures 1-3); assay type: cell-based, human; conditions: hTHP-1 assay containing 2% fetal bovine serum, Table B2, class symbols; read-out: IC50
Method in brief: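 IL-1β released into supernatants was read by HTRF after 2 h gramicidin (5 μM) challenge. Before challenge, compounds (3-fold dilutions, top 100 μM, 0.37% DMSO) were given 1 h on THP-1 cells differentiated with PMA (20 ng/ml, 16-18 h) and held in 2% FBS medium.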

Structure (SMILES)	pIC50
CNCC1(c2ccc(S(N)(=O)=NC(=O)Nc3c4c(cc5c3CCC5)CCC4)c(F)c2)CC1 (single isomer, unassigned) [Example 529, (S) or (R)-2-fluoro-N′-((1,2,3,5,6,7-hexahydro-s-indacen-4-yl)carbamoyl)-4-(1-((methylamino)methyl)cyclopropyl) benzenesulfonimidamide]	4.52 to 5.30
CC(C)(O)c1csc([S@@](N)(=O)=NC(=O)Nc2c3c(cc4c2C(=O)CC4)CCC3)c1 (single isomer, unassigned) [Example 531, (S) or (R)-4-(2-hydroxypropan-2-yl)-N′-((3-oxo-1,2,3,5,6,7-hexahydro-s-indacen-4-yl)carbamoyl) (thiophene-2 - sulfoniinidamide]	5.30 to 6.00
CO[C@H]1COc2c(S(N)(=O)=NC(=O)Nc3c4c(cc5c3CC5)CCC4)cnn2C1 (single isomer, unassigned) [Example 534, (R,6R) or (S,6R)-6-methoxy-N′-((2,4,5,6-tetrahydro-1H-cyclobuta[f]inden-3-yl)carbamoyl)-6,7-dihydro-5H-pyrazolo [5,1-b][1,3]oxazine-3-sulfonimidamide]	7.40 to 8.10
CO[C@H]1COc2c(S(N)(=O)=NC(=O)Nc3c4c(cc5c3CC5)CCC4)cnn2C1 (single isomer, unassigned) [Example 535, (S,6R) or (R,6R)-6-methoxy-N′-((2,4,5,6-tetrahydro-1H-cyclobuta[f]inden-3-yl)caibamoyl)-6,7-dihydro-5H-pyrazolo [5,1-b][1,3]oxazine-3-sulfonimidamide]	5.30 to 6.00
CNCc1ccc(S(N)(=O)=NC(=O)Nc2c3c(cc4c2CC4)CCC3)cc1 (single isomer, unassigned) [Example 536, (S) or (R)-4-((methylamino)methyl)-N′-((2,4,5,6-tetrahydro-1H-cyclobuta[f]inden-3-yl)carbamoyl) benzenesulfonimidamide]	4.52 to 5.30
CNCc1ccc(S(N)(=O)=NC(=O)Nc2c3c(cc4c2CC4)CCC3)cc1 (single isomer, unassigned) [Example 537, (R) or (S)-4-((methylamino)methyl)-N′-((2,4,5,6-tetrahydro-1H-cyclobuta[f]inden-3-yl)carbamoyl) benzenesulfonimidamide]	5.30 to 6.00

The next lines start with the values.

pIC50	Structure (SMILES)
5.30 to 6.00	CC(C)c1cc2c(cc1NC(=O)N=S(N)(=O)c1cnc(C(C)(C)O)s1)CCC2 (single isomer, unassigned) [Example 527, (S) or (R)-2-(2-hydroxypropan-2-yl)-N′-((6-isopropyl-2,3-dihydro-1H-inden-5-yl)carbamoyl) thiazole-5-sulfonimidamide]
6.00 to 6.70	CNCC1(c2ccc(S(N)(=O)=NC(=O)Nc3c4c(cc5c3CCC5)CCC4)c(F)c2)CC1 (single isomer, unassigned) [Example 528, (R) or (S)-2-fluoro-N′-((1,2,3,5,6,7-hexahydro-s-indacen-4-yl)carbamoyl)-4-(1-((methylamino)methyl)cyclopropyl) benzenesulfonimidamide]
6.70 to 7.40	CC(C)(O)c1csc([S@](N)(=O)=NC(=O)Nc2c3c(cc4c2C(=O)CC4)CCC3)c1 (single isomer, unassigned) [Example 530, (R) or (S)-4-(2-hydroxypropan-2-yl)-N′-((3-oxo-1,2,3,5,6,7-hexahydro-s-indacen-4-yl)carbamoyl) (thiophene-2-sulfonimidamide]
5.30 to 6.00	COCc1nc(C(C)(C)O)sc1S(N)(=O)=NC(=O)Nc1c2c(c(C#N)c3c1CCC3)CCC2 (single isomer, unassigned) [Example 532, (S) or (R)-N′-((8-cyano-1,2,3,5,6,7-hexahydro-s-indacen-4-yl)carbamoyl)-2-(2-hydroxypropan-2-yl)-4-(methoxymethyl) thiazole-5-suifoiiimidamide]
6.00 to 6.70	COCc1nc(C(C)(C)O)sc1S(N)(=O)=NC(=O)Nc1c2c(c(C#N)c3c1CCC3)CCC2 (single isomer, unassigned) [Example 533, (R) or (S)-N′-((8-cyano-1,2,3,5,6,7-hexahydro-s-indacen-4-yl)carbamoyl)-2-(2-hydroxypropan-2-yl)-4-(methoxymethyl) thiazole-5-sulfonimidamide]

From patent publication US20230051589A1, “COMPOUNDS AND COMPOSITIONS FOR TREATING CONDITIONS ASSOCIATED WITH NLRP ACTIVITY” (Novartis AG, priority 2018, published 2023)
